US10799590B2, “Compositions containing a bitter tastant and at least one sophorolipid, and methods of reducing bitter taste attributed to a bitter tastant in an edible composition” (The United States of America, as Represented by the …, priority 2015, dated 2020)

Tested on: chorda tympani nerve of wild-type B6 mice
Assay: Chorda tympani whole-nerve responses to lingual taste stimuli, wild-type B6 mice
Assay type: in vivo
Details: lingual application (FIG. 6B, 7)
Experimental: Mouse model for sweet property and bitter-masking assay. Recordings of chorda tympani (CT) whole-nerve responses: All protocols involving animals were approved by the Institutional Animal Care and Use Committees at the Monell Center prior to the experiments. The study was performed with mice from two strains: C57BL/6J inbred strain (B6; Jackson Laboratory, Bar Harbor, Me.) bearing the wild-type Tas1r3 allele was used as the control, and the C57BL/6J-Tas1r3^tm1Rjm “gene-knockout” strain (T1R3-KO) lacking the entire T1R3 coding region and devoid of T1R3 protein ([…]., et al., Science, 301: 850-853 (2003)). Afferent signals from taste cells are relayed to the brain via three major gustatory nerves: the chorda tympani, glossopharyngeal, and greater superficial petrosal. […] Neural responses resulting from chemical stimulations of the tongue were fed into an amplifier (Grass Instruments, West Warwick, R.I.) and monitored on an oscilloscope and an audio monitor. Whole-nerve responses were integrated with a time constant of 1.0 s and recorded using a computer for later analysis using a PowerLab system (PowerLab/sp4; AD Instruments, Colorado Springs, Colo.). […] To analyze nerve responses to each stimulus, the magnitudes of integrated responses at 5, 10, 15, 20, and 25 s after stimulus onset were measured and averaged. […]

OC[C@H]1O[C@@H](O[C@@H]2[C@@H](O)[C@H](O)[C@@H](CO)O[C@H]2O)[C@H](O)[C@@H](O)[C@@H]1O [Sophorose, 2-O-β-D-glucopyranosyl-β-D glucopyranose]
chorda tympani responses: present
